Test system: peptide-specific IgG in sera of cancer patients and healthy donors
Experiment: Measurement of anti-peptide IgG in plasma by LUMINEX multiplexed flow cytometric assay
Assay type: binding, human
Procedure: The levels of anti-peptide immunoglobulin G (IgG) were measured by the LUMINEX™ system (multiplexed flow cytometric assay) as previously reported (Komatsu N, Shichijo S, Nakagawa M, Itoh K. New multiplexed flow cytometric assay to measure anti-peptide antibody: a novel tool for monitoring immune responses to peptides used for immunization. Scand J Clin Lab Invest 2004; 64:1-11). In brief, plasma was incubated with 25 μl of peptide-coupled color-coded beads for 2 hr at room temperature on a plate shaker. After incubation, the mixture was washed with a vacuum manifold apparatus and incubated with 100 μl of biotinylated goat anti-human IgG (γ chain-specific)(BA-3080, Vector Laboratories, Burlingame, Calif., USA) for 1 h at room temperature. The plate was then washed, followed by the addition of 100 μl of streptavidin-PE (S-866, Molecular Probes, Eugene, Oreg., USA) into wells, and was incubated for 30 min at room temperature on a plate shaker. The bound beads were washed three times followed by the addition of 100 μl of Tween-PBS into each well. Fifty μl of sample was detected using the LUMINEX™ system (multiplexed flow cytometric assay). To confirm the specificity of IgG to a SCCA peptide, sample plasma was cultured in plates coated with a corresponding SCCA peptide, or with an irrelevant SCCA peptide. After the operation was repeated three times, the levels of the corresponding SCCA peptide-specific IgG in the resulting supernatant were determined by the LUMINEX™ system (multiplexed flow cytometric assay).
These 9 SCCA-derived peptides were screened based on their ability to be recognized by IgG in cancer patients. Peptide-specific IgG was measured by a multiplexed flow cytometric assay (LUMINEX™ (multiplexed flow cytometric assay)). The plasma samples were derived from 35 uterine cervical SCC patients, 10 breast adenocarcinoma patients, 10 pancreatic adenocarcinoma patients, 10 gastric adenocarcinoma, and 6 colon adenocarcinoma patients. The level of fluorescence intensity was judged to be significant when exceeded 100 at an 1/100 dilution.

Sequence: RFKVEESYDL (SCCA 286-295 peptide) [SCCA-derived peptide, position 286-295]
- Total: healthy donors with significant peptide-reactive IgG / donors tested (10 healthy donors, significant when fluorescence intensity exceeded 100 at 1/100 dilution): 4/10
- Total: cancer patients with significant peptide-reactive IgG / patients tested (71 cancer patients, significant when fluorescence intensity exceeded 100 at 1/100 dilution): 19/71
- Specificity of IgG reactive to the peptide (absorption assay: corresponding vs irrelevant SCCA peptide-coated wells (FIG. 3)): confirmed by absorption assay
- Fluorescence intesity (serum of Breast Ca. patient #36, 1:100 dilution): 292
- Fluorescence intesity (serum of Breast Ca. patient #37, 1:100 dilution): 54
- Fluorescence intesity (serum of Breast Ca. patient #38, 1:100 dilution): 95
- Fluorescence intesity (serum of Breast Ca. patient #39, 1:100 dilution): 117
- Fluorescence intesity (serum of Breast Ca. patient #40, 1:100 dilution): 32
- Fluorescence intesity (serum of Breast Ca. patient #41, 1:100 dilution): 321
- Fluorescence intesity (serum of Breast Ca. patient #42, 1:100 dilution): 47
- Fluorescence intesity (serum of Breast Ca. patient #43, 1:100 dilution): 58
- Fluorescence intesity (serum of Breast Ca. patient #44, 1:100 dilution): 155
- Fluorescence intesity (serum of Breast Ca. patient #45, 1:100 dilution): 80
- Fluorescence intesity (serum of Colon Ca. patient #66, 1:100 dilution): 4
- Fluorescence intesity (serum of Colon Ca. patient #67, 1:100 dilution): 35
- Fluorescence intesity (serum of Colon Ca. patient #68, 1:100 dilution): 0
- Fluorescence intesity (serum of Colon Ca. patient #69, 1:100 dilution): 8
- Fluorescence intesity (serum of Colon Ca. patient #70, 1:100 dilution): 16
- Fluorescence intesity (serum of Colon Ca. patient #71, 1:100 dilution): 45
- Fluorescence intesity (serum of Gastric Ca. patient #56, 1:100 dilution): 243
- Fluorescence intesity (serum of Gastric Ca. patient #57, 1:100 dilution): 9
- Fluorescence intesity (serum of Gastric Ca. patient #58, 1:100 dilution): 27
- Fluorescence intesity (serum of Gastric Ca. patient #59, 1:100 dilution): 258
- Fluorescence intesity (serum of Gastric Ca. patient #60, 1:100 dilution): 79
- Fluorescence intesity (serum of Gastric Ca. patient #61, 1:100 dilution): 286
- Fluorescence intesity (serum of Gastric Ca. patient #62, 1:100 dilution): 0
- Fluorescence intesity (serum of Gastric Ca. patient #63, 1:100 dilution): 7
- Fluorescence intesity (serum of Gastric Ca. patient #64, 1:100 dilution): 40
- Fluorescence intesity (serum of Gastric Ca. patient #65, 1:100 dilution): 37
- Fluorescence intesity (serum of Healthy Donor #1, 1:100 dilution): 21
- Fluorescence intesity (serum of Healthy Donor #2, 1:100 dilution): 219
- Fluorescence intesity (serum of Healthy Donor #3, 1:100 dilution): 9
- Fluorescence intesity (serum of Healthy Donor #4, 1:100 dilution): 0
- Fluorescence intesity (serum of Healthy Donor #5, 1:100 dilution): 239
- Fluorescence intesity (serum of Healthy Donor #6, 1:100 dilution): 2
- Fluorescence intesity (serum of Healthy Donor #7, 1:100 dilution): 0
- Fluorescence intesity (serum of Healthy Donor #8, 1:100 dilution): 516
- Fluorescence intesity (serum of Healthy Donor #9, 1:100 dilution): 100
- Fluorescence intesity (serum of Healthy Donor #10, 1:100 dilution): 138
- Fluorescence intesity (serum of Pancreas Ca. patient #46, 1:100 dilution): 0
- Fluorescence intesity (serum of Pancreas Ca. patient #47, 1:100 dilution): 37
- Fluorescence intesity (serum of Pancreas Ca. patient #48, 1:100 dilution): 946
- Fluorescence intesity (serum of Pancreas Ca. patient #49, 1:100 dilution): 97
- Fluorescence intesity (serum of Pancreas Ca. patient #50, 1:100 dilution): 0
- Fluorescence intesity (serum of Pancreas Ca. patient #51, 1:100 dilution): 0
- Fluorescence intesity (serum of Pancreas Ca. patient #52, 1:100 dilution): 275
- Fluorescence intesity (serum of Pancreas Ca. patient #53, 1:100 dilution): 41
- Fluorescence intesity (serum of Pancreas Ca. patient #54, 1:100 dilution): 48
- Fluorescence intesity (serum of Pancreas Ca. patient #55, 1:100 dilution): 24
- Fluorescence intesity (serum of Uterine cervical Ca. patient #1, 1:100 dilution): 75
- Fluorescence intesity (serum of Uterine cervical Ca. patient #2, 1:100 dilution): 0
- Fluorescence intesity (serum of Uterine cervical Ca. patient #3, 1:100 dilution): 21
- Fluorescence intesity (serum of Uterine cervical Ca. patient #4, 1:100 dilution): 229
- Fluorescence intesity (serum of Uterine cervical Ca. patient #5, 1:100 dilution): 58
- Fluorescence intesity (serum of Uterine cervical Ca. patient #6, 1:100 dilution): 869
- Fluorescence intesity (serum of Uterine cervical Ca. patient #7, 1:100 dilution): 15
- Fluorescence intesity (serum of Uterine cervical Ca. patient #8, 1:100 dilution): 30
- Fluorescence intesity (serum of Uterine cervical Ca. patient #9, 1:100 dilution): 93
- Fluorescence intesity (serum of Uterine cervical Ca. patient #10, 1:100 dilution): 14
- Fluorescence intesity (serum of Uterine cervical Ca. patient #11, 1:100 dilution): 23
- Fluorescence intesity (serum of Uterine cervical Ca. patient #12, 1:100 dilution): 44
- Fluorescence intesity (serum of Uterine cervical Ca. patient #13, 1:100 dilution): 29
- Fluorescence intesity (serum of Uterine cervical Ca. patient #14, 1:100 dilution): 19
- Fluorescence intesity (serum of Uterine cervical Ca. patient #15, 1:100 dilution): 129
- Fluorescence intesity (serum of Uterine cervical Ca. patient #16, 1:100 dilution): 147
- Fluorescence intesity (serum of Uterine cervical Ca. patient #17, 1:100 dilution): 63
- Fluorescence intesity (serum of Uterine cervical Ca. patient #18, 1:100 dilution): 48
- Fluorescence intesity (serum of Uterine cervical Ca. patient #19, 1:100 dilution): 62
- Fluorescence intesity (serum of Uterine cervical Ca. patient #20, 1:100 dilution): 102
- Fluorescence intesity (serum of Uterine cervical Ca. patient #21, 1:100 dilution): 21
- Fluorescence intesity (serum of Uterine cervical Ca. patient #22, 1:100 dilution): 25
- Fluorescence intesity (serum of Uterine cervical Ca. patient #23, 1:100 dilution): 60
- Fluorescence intesity (serum of Uterine cervical Ca. patient #24, 1:100 dilution): 1779
- Fluorescence intesity (serum of Uterine cervical Ca. patient #25, 1:100 dilution): 18
- Fluorescence intesity (serum of Uterine cervical Ca. patient #26, 1:100 dilution): 97
- Fluorescence intesity (serum of Uterine cervical Ca. patient #27, 1:100 dilution): 29
- Fluorescence intesity (serum of Uterine cervical Ca. patient #28, 1:100 dilution): 139
- Fluorescence intesity (serum of Uterine cervical Ca. patient #29, 1:100 dilution): 16
- Fluorescence intesity (serum of Uterine cervical Ca. patient #30, 1:100 dilution): 34
- Fluorescence intesity (serum of Uterine cervical Ca. patient #31, 1:100 dilution): 104
- Fluorescence intesity (serum of Uterine cervical Ca. patient #32, 1:100 dilution): 19
- Fluorescence intesity (serum of Uterine cervical Ca. patient #33, 1:100 dilution): 118
- Fluorescence intesity (serum of Uterine cervical Ca. patient #34, 1:100 dilution): 16
- Fluorescence intesity (serum of Uterine cervical Ca. patient #35, 1:100 dilution): 21
